According to PubChem BioAssay AID328 (DTP/NCI, 2004):
“And” between values parts separate entries of the source, which are not always exact repeats. Equal values may be shown once. Toxic doses and inconclusive results are not listed. Rule for the calls: active = survival T/C of 150% or more; inactive = T/C below 125% in these data.

System: BDF1 mice, P388 leukemia ip, median survival T/C
Test: NCI In Vivo Anticancer Drug Screen. Data for tumor model P388 Leukemia (intraperitoneal) in B6D2F1 (BDF1) mice
Details: endpoint: median survival time, higher = longer survival
Method in brief: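 T/C = treated-group survival ÷ vehicle-control survival; tumour transplanted into mice before dosing.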

[1] = dose: 100.0 mg/kg/injection, schedule: Q01DX009 (ip), vehicle: saline with Tween-80
[2] = dose: 100.0 mg/kg/injection, schedule: Q04DX003 (ip), vehicle: Klucel (hydroxypropylcellulose) (HPC)
[3] = dose: 200.0 mg/kg/injection, schedule: Q01DX009 (ip), vehicle: saline with Tween-80
[4] = dose: 400.0 mg/kg/injection, schedule: Q01DX009 (ip), vehicle: saline with Tween-80
[5] = dose: 100.0 mg/kg/injection, schedule: Q04DX003 (ip), vehicle: saline with Tween-80
[6] = dose: 200.0 mg/kg/injection, schedule: Q04DX003 (ip), vehicle: saline with Tween-80

Measured: T/C

CN(CCC(=O)c1cccc2ccccc12)Cc1ccccc1
inactive: dose: 100.0 mg/kg/injection, schedule: Q01DX009 (ip), vehicle: Klucel (hydroxypropylcellulose) (HPC) 115 % of control | dose: 200.0 mg/kg/injection, schedule: Q01DX009 (ip), vehicle: Klucel (hydroxypropylcellulose) (HPC) 100 % of control | dose: 400.0 mg/kg/injection, schedule: Q01DX009 (ip), vehicle: Klucel (hydroxypropylcellulose) (HPC) 105 % of control

Cc1ccc(S(=O)(=O)Oc2cc(C)ccc2C)cc1
inactive: dose: 25.0 mg/kg/injection, schedule: Q04DX003 (ip), vehicle: Klucel (hydroxypropylcellulose) (HPC) 105 % of control | dose: 50.0 mg/kg/injection, schedule: Q04DX003 (ip), vehicle: Klucel (hydroxypropylcellulose) (HPC) 95 % of control | [1] 114 % of control | [2] 105 % of control | [3] 109 % of control | [4] 114 % of control

CCCCNc1nc(N)nc(Nc2ccc(Br)cc2)c1N=O
inactive: dose: 25.0 mg/kg/injection, schedule: Q01DX009 (ip), vehicle: saline with Tween-80 90 % of control | dose: 50.0 mg/kg/injection, schedule: Q01DX009 (ip), vehicle: saline with Tween-80 90 % of control | dose: 100.0 mg/kg/injection, schedule: Q01DX001 (ip), vehicle: Klucel (hydroxypropylcellulose) (HPC) 100 % of control | [1] 90 % of control and 91 % of control | [2] 120 % of control | [5] 86 % of control | dose: 132.0 mg/kg/injection, schedule: Q04DX003 (ip), vehicle: Klucel (hydroxypropylcellulose) (HPC) 100 % of control and 109 % of control | dose: 200.0 mg/kg/injection, schedule: Q01DX001 (ip), vehicle: Klucel (hydroxypropylcellulose) (HPC) 91 % of control | dose: 200.0 mg/kg/injection, schedule: Q04DX003 (ip), vehicle: Klucel (hydroxypropylcellulose) (HPC) 104 % of control | [6] 104 % of control | dose: 300.0 mg/kg/injection, schedule: Q04DX003 (ip), vehicle: Klucel (hydroxypropylcellulose) (HPC) 90 % of control and 113 % of control | dose: 400.0 mg/kg/injection, schedule: Q01DX001 (ip), vehicle: Klucel (hydroxypropylcellulose) (HPC) 91 % of control | dose: 400.0 mg/kg/injection, schedule: Q04DX003 (ip), vehicle: saline with Tween-80 100 % of control

COc1cccc2c1C(=O)c1c(O)c3c(c(O)c1C2=O)C[C@@](O)(C(=O)CO)C[C@@H]3OC1CC(N(C)C)C(O)C(C)O1 (some centres not stated)
inactive: dose: 4.0 mg/kg/injection, schedule: Q04DX003 (ip), vehicle: water 89 % of control
active: dose: 1.44 mg/kg/injection, schedule: Q04DX003 (ip), vehicle: water 170 % of control | dose: 2.4 mg/kg/injection, schedule: Q04DX003 (ip), vehicle: water 198 % of control

OC(CNc1ccc(CSc2ccccc2)cc1)c1ccccc1 (configuration not stated)
inactive: dose: 50.0 mg/kg/injection, schedule: Q01DX009 (ip), vehicle: other 120 % of control | dose: 100.0 mg/kg/injection, schedule: Q01DX009 (ip), vehicle: other 123 % of control

OCc1ccccc1F
inactive: [1] 88 % of control | [5] 100 % of control | [3] 103 % of control | [6] 109 % of control | [4] 111 % of control

COc1cc(/C=N/n2cnnc2)cc(OC)c1OC
inactive: dose: 100.0 mg/kg/injection, schedule: Q04DX003 (ip), vehicle: saline 100 % of control | dose: 200.0 mg/kg/injection, schedule: Q04DX003 (ip), vehicle: saline 100 % of control | dose: 400.0 mg/kg/injection, schedule: Q04DX003 (ip), vehicle: saline 109 % of control

CC(C)(C)N1CC1CN (configuration not stated)
inactive: dose: 50.0 mg/kg/injection, schedule: Q01DX009 (ip), vehicle: saline 90 % of control | dose: 100.0 mg/kg/injection, schedule: Q01DX009 (ip), vehicle: saline 90 % of control | dose: 200.0 mg/kg/injection, schedule: Q01DX009 (ip), vehicle: saline 89 % of control | dose: 400.0 mg/kg/injection, schedule: Q01DX009 (ip), vehicle: saline 121 % of control

CCOC(=O)C/C(C)=N/NC(=O)CC(=O)N/N=C(\C)CC(=O)OCC
inactive: dose: 75.0 mg/kg/injection, schedule: Q01DX009 (ip), vehicle: saline 109 % of control | dose: 150.0 mg/kg/injection, schedule: Q01DX009 (ip), vehicle: saline 105 % of control | dose: 300.0 mg/kg/injection, schedule: Q01DX009 (ip), vehicle: saline 103 % of control
